# From patent US20100029657A1, “Bridged, Bicyclic Heterocyclic or Spiro Bicyclic Heterocyclic Derivatives of Pyrazolo[1, 5-A]Pyrimidines, Methods for Preparation and Uses Thereof” (Wyeth, priority 2008, published 2010)
# Target: T1, Flag/GST-tagged recombinant human B-Raf (Homo sapiens, UniProt P15056)
# T1 construct: Flag; GST; made in house; host or cells: Sf9 insect cells (B-Raf); E. coli (MEK1-GST)
# Test: B-Raf kinase assay (phosphorylation of GST-MEK1, phospho-MEK1 antibody/Europium detection)
# Assay type: biochemical
# Conditions: B-Raf IC50 Data for compounds of Formula A; read-out: Mean IC50
# Method: B-Raf1 Kinase Assay Procedure: B-Raf-1 is used to phosphorylate GST-MEK1.
# • 1. Assay Dilution Buffer (ADB): 20 mM MOPS, pH 7.2, 25 mM β-glycerol phosphate, 5 mM EGTA, 1 mM sodium orthovanadate, 1 mM dithiothreitol, 0.01% Triton X-100. • 2. Magnesium/ATP Cocktail: ADB solution (minus Triton X-100) plus 200 μM cold ATP and 40 mM magnesium chloride. • 4. Active Kinase: Active B-Raf: Used at 0.2 nM per assay point. • 5. […] TBST—Tris (50 mM, pH 7.5), NaCl (150 mM), Tween-20 (0.05%) • 7. Anti-GST Ab (GE) • 8. Anti pMEK Ab (Upstate) • 9. Anti-rabbit Ab/Europium conjugate (Wallac).
# B-Raf Assay Procedure: • 1. Added 25 μL of ADB containing B-Raf and Mek per assay (i.e. per well of a 96 well plate) • 2. Added 25 μL of 0.2 mM ATP and 40 mM magnesium chloride in Magnesuium/ATP Cocktail. • 3. Incubated for 45 minutes at RT with occasional shaking. • 4. Transferred this mixture to an anti-GST Ab coated 96 well plate (Nunc Immunosorb plates coated o/n with a-GST. Plate freshly washed 3×with TBS-T before use. • 5. Incubated o/n at […] in cold room. • 6. Washed 3× with TBST, ed Anti-Phospho MEK1 (1:1000, dilution depended upon lot) • 7. Incubated for 60 minutes at RT in a shaking incubator • 8. Washed 3× with TBST, add Anti-rabbit Ab/Europium conjugate (Wallac) (1:500, dilution depended upon lot) • 9. Incubated for 60 minutes at RT on a platform shaker. • 10. Washed plate 3× with TBS-T • 11. Added 100 μL of Wallac Delfia Enhancement Solution and agitated for 10 minutes. • 12. Read plates in Wallac Victor model Plate Reader. • 13.
# The % inhibition was determined for each compound concentration.
# T1 sequence (P15056 whole entry): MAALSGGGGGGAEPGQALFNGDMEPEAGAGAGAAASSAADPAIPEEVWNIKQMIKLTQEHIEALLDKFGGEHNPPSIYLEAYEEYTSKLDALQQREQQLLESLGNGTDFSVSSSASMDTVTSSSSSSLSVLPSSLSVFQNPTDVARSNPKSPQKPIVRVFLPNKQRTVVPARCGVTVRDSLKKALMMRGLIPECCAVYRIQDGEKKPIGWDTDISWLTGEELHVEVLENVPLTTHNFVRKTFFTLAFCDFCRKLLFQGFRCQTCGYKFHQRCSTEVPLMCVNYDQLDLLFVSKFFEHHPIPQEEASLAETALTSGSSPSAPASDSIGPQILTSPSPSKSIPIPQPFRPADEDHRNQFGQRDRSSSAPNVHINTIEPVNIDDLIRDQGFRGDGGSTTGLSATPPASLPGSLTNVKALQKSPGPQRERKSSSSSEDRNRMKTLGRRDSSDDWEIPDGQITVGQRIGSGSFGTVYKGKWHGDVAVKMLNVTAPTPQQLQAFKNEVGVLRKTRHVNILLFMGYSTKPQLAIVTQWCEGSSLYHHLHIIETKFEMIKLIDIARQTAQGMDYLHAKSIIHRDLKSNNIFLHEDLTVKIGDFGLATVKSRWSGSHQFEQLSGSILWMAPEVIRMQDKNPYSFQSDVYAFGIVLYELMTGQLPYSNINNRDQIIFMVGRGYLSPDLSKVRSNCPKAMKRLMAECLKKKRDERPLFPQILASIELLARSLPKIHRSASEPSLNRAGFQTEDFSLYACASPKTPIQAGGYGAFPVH
row,SMILES,IC50 [nM]
1,"c1cc(-c2c(-c3ccncc3)nn3c2nccc3[C@H]2CC[C@@H](N3C4CCC3COC4)CC2)c2cn[nH]c2c1 (relative stereo) [Example 150, 3-(1H-indazol-4-yl)-7-[cis-4-(3-oxa-8-azabicyclo[3.2.1]oct-8-yl)cyclohexyl]-2-pyridin-4-ylpyrazolo[1,5-a]pyrimidine]",39.9
2,"c1cc(-c2c(-c3ccncc3)nn3c2nccc3[C@H]2CC[C@H](N3C4CCC3COC4)CC2)c2cn[nH]c2c1 (relative stereo) [Example 151, 3-(1H-indazol-4-yl)-7-[trans-4-(3-oxa-8-azabicyclo[3.2.1]oct-8-yl)cyclohexyl]-2-pyridin-4-ylpyrazolo[1,5-a]pyrimidine]",6.4
3,"c1cc(-c2c(-c3ccncc3)nn3c2nccc3[C@H]2CC[C@@H](N3CC4CCC(C3)O4)CC2)c2cn[nH]c2c1 (relative stereo) [Example 152, 3-(1H-indazol-4-yl)-7-[cis-4-(8-oxa-3-azabicyclo[3.2.1]oct-3-yl)cyclohexyl]-2-pyridin-4-ylpyrazolo[1,5-a]pyrimidine]",6.4
4,"c1cc(-c2c(-c3ccncc3)nn3c2nccc3[C@H]2CC[C@H](N3CC4CCC(C3)O4)CC2)c2cn[nH]c2c1 (relative stereo) [Example 153, 3-(1H-indazol-4-yl)-7-[trans-4-(8-oxa-3-azabicyclo[3.2.1]oct-3-yl)cyclohexyl]-2-pyridin-4-ylpyrazolo[1,5-a]pyrimidine]",3.7
5,"Fc1ccc(-c2c(-c3ccncc3)nn3c2nccc3[C@H]2CC[C@@H](N3CC4CCC(C3)O4)CC2)c2cn[nH]c12 (relative stereo) [Example 179, 3-(7-fluoro-1H-indazol-4-yl)-7-[cis-4-(8-oxa-3-azabicyclo[3.2.1]oct-3-yl)cyclohexyl]-2-pyridin-4-ylpyrazolo[1,5-a]pyrimidine]",8.6
6,"Fc1ccc(-c2c(-c3ccncc3)nn3c2nccc3[C@H]2CC[C@H](N3CC4CCC(C3)O4)CC2)c2cn[nH]c12 (relative stereo) [Example 180, 3-(7-fluoro-1H-indazol-4-yl)-7-[trans-4-(8-oxa-3-azabicyclo[3.2.1]oct-3-yl)cyclohexyl]-2-pyridin-4-ylpyrazolo[1,5-a]pyrimidine]",1.8
7,"Fc1ccc(-c2c(-c3ccncc3)nn3c2nccc3[C@H]2CC[C@@H](N3C4CCC3COC4)CC2)c2cn[nH]c12 (relative stereo) [Example 181, 3-(7-fluoro-1H-indazol-4-yl)-7-[cis-4-(3-oxa-8-azabicyclo[3.2.1]oct-8-yl)cyclohexyl]-2-pyridin-4-ylpyrazolo[1,5-a]pyrimidine]",2.1
8,"Fc1ccc(-c2c(-c3ccncc3)nn3c2nccc3[C@H]2CC[C@H](N3C4CCC3COC4)CC2)c2cn[nH]c12 (relative stereo) [Example 182, 3-(7-fluoro-1H-indazol-4-yl)-7-[trans-4-(3-oxa-8-azabicyclo[3.2.1]oct-8-yl)cyclohexyl]-2-pyridin-4-ylpyrazolo[1,5-a]pyrimidine]",1.3
9,"Oc1cccc(-c2c(-c3ccncc3)nn3c(-c4ccc(NCC56CCN(CC5)CC6)nc4)ccnc23)c1 [Example 1, 3-(7-{6-[(1-Azabicyclo[2.2.2]oct-4-ylmethyl)amino]pyridin-3-yl}-2-pyridin-4-ylpyrazolo[1,5-a]pyrimidin-3-yl)phenol]",2
10,"Oc1cccc(-c2c(-c3ccncc3)nn3c(-c4ccc(N[C@@H]5CN6CCC5CC6)nc4)ccnc23)c1 [Example 2, 3-(7-{6-[(3S)-1-Azabicyclo[2.2.2]oct-3-ylamino]pyridin-3-yl}-2-pyridin-4-ylpyrazolo[1,5-a]pyrimidin-3-yl)phenol]",2
11,"Oc1cccc(-c2c(-c3ccncc3)nn3c(-c4ccc(N[C@H]5CN6CCC5CC6)nc4)ccnc23)c1 [Example 3, 3-(7-{6-[(3R)-1-Azabicyclo[2.2.2]oct-3-ylamino]pyridin-3-yl}-2-pyridin-4-ylpyrazolo[1,5-a]pyrimidin-3-yl)phenol]",1
12,"COc1cc(-c2c(-c3ccncc3)nn3c(-c4ccc(NC5CN6CCC5CC6)nc4)ccnc23)ccc1Cl [Example 5, 5-(7-{6-[(3R)-1-Azabicyclo[2.2.2]oct-3-ylamino]pyridin-3-yl}-3-(4-chloro-3-methoxyphenyl)-2-pyridin-4-ylpyrazolo[1,5-a]pyrimidine]",6
13,Oc1cccc(-c2c(-c3ccncc3)nn3c(NCC45CCN(CC4)CC5)ccnc23)c1 [Example 6],57
14,"CCOC(=O)N1C2CCC1CC(c1ccnc3c(-c4cccc(OC)c4)c(-c4ccncc4)nn13)C2 (centres unmarked) [Example 7, Ethyl 3-(3-(3-methoxyphenyl)-2-(pyridin-4-yl)pyrazolo[1,5-a]pyrimidin-7-yl)-8-azabicyclo[3.2.1]octane-8-carboxylate]",87
15,"CCOC(=O)N1C2CCC1CC(c1ccnc3c(-c4cccc(O)c4)c(-c4ccncc4)nn13)C2 (centres unmarked) [Example 8, Ethyl 3-(3-(3-hydroxyphenyl)-2-(pyridin-4-yl)pyrazolo[1,5-a]pyrimidin-7-yl)-8-azabicyclo[3.2.1]octane-8-carboxylate]",1
16,"Oc1cccc(-c2c(-c3ccncc3)nn3c(C4CC5CCC(C4)N5)ccnc23)c1 (centres unmarked) [Example 9, 3-(7-(8-Azabicyclo[3.2.1]octan-3-yl)-2-(pyridin-4-yl)pyrazolo[1,5-a]pyrimidin-3-yl)phenol]",4
17,"CCOC(=O)N1C2CCC1CC(c1ccnc3c(-c4ccc(Cl)c(OC)c4)c(-c4ccncc4)nn13)C2 (centres unmarked) [Example 10, Ethyl 3-(3-(4-chloro-3-methoxyphenyl)-2-(pyridin-4-yl)pyrazolo[1,5-a]pyrimidin-7-yl)-8-azabicyclo[3.2.1]octane-8-carboxylate]",54
18,"CCOC(=O)N1C2CCC1CC(c1ccnc3c(-c4ccc(Cl)c(O)c4)c(-c4ccncc4)nn13)C2 (centres unmarked) [Example 11, Ethyl 3-(3-(4-chloro-3-hydroxyphenyl)-2-(pyridin-4-yl)pyrazolo[1,5-a]pyrimidin-7-yl)-8-azabicyclo[3.2.1]octane-8-carboxylate]",2
19,"Oc1cc(-c2c(-c3ccncc3)nn3c(C4CC5CCC(C4)N5)ccnc23)ccc1Cl (centres unmarked) [Example 12, 5-(7-(8-Azabicyclo[3.2.1]octan-3-yl)-2-(pyridin-4-yl)pyrazolo[1,5-a]pyrimidin-3-yl)-2-chlorophenol]",0.4
20,"CC(=O)N1C2CCC1CC(c1ccnc3c(-c4ccc(Cl)c(O)c4)c(-c4ccncc4)nn13)C2 (centres unmarked) [Example 13, 5-[7-(8-Acetyl-8-azabicyclo[3.2.1]oct-3-yl)-2-pyridin-4-ylpyrazolo[1,5-a]pyrimidin-3-yl]-2-chlorophenol]",0.3
21,"CS(=O)(=O)N1C2CCC1CC(c1ccnc3c(-c4ccc(Cl)c(O)c4)c(-c4ccncc4)nn13)C2 (centres unmarked) [Example 14, 2-Chloro-5-{7-[8-(methylsulfonyl)-8-azabicyclo[3.2.1]oct-3-yl]-2-pyridin-4-ylpyrazolo[1,5-a]pyrimidin-3-yl}phenol]",2
22,"CC(=O)Oc1cc(-c2c(-c3ccncc3)nn3c(C4CC5CCC(C4)N5C(C)=O)ccnc23)ccc1Cl (centres unmarked) [Example 15, 5-[7-(8-Acetyl-8-azabicyclo[3.2.1]oct-3-yl)-2-pyridin-4-ylpyrazolo[1,5-a]pyrimidin-3-yl]-2-chlorophenyl acetate]",10
23,"COc1cc(-c2c(-c3ccncc3)nn3c(C4CC5CCC(C4)N5)ccnc23)ccc1Cl (centres unmarked) [Example 16, 7-(8-Azabicyclo[3.2.1]oct-3-yl)-3-(4-chloro-3-methoxyphenyl)-2-pyridin-4-ylpyrazolo[1,5-a]pyrimidine]",9
